The source of these data is patent US20220047527A1, “FOOD-AND-DRINK COMPOSITION CONTAINING ASTAXANTHIN” (AstaReal Co., Ltd., priority 2016, published 2022).

SMILES strings stand for the structures.

A short description of series [1]: Adverse events in Study 1. Type of series: in vivo, human.
Series [2] deals with human having a sense of fatigue. Description: OSA sleep analysis (OSA sleep inventory MA version). Type of series: in vivo. The protocol:
A placebo-controlled, randomized, double-blind, parallel-group study was employed for ingestion of the test food, and two groups, namely, the control group (placebo group) with ingestion of a capsule not containing astaxanthin and the astaxanthin group with ingestion of a capsule containing 6 mg of astaxanthin (120 mg of Haematococcus algae extract and 10 mg of tocotrienol mixture derived from palm oil) were compared through a double-blind method. For ingestion of the test food, the subjects were instructed to ingest one capsule twice daily (total 12 mg of astaxanthin (240 mg of Haematococcus algae extract and 20 mg of tocotrienol mixture derived from palm oil) in two capsules per day), one after breakfast (or after the first meal of the day if no breakfast was taken) and the other after dinner, with water or lukewarm water within 30 min of eating. The overall duration for ingestion was 8 weeks (12 weeks only for the OSA sleep analysis). The subjects were also instructed to record their test food ingestion, drinking, and exercise in a diary every day, from the first day to the last day of ingestion.
In accordance with a method reported in Yukari Yamamoto, Hideki Tanaka, Miki Takase, Katuo Yamazaki, Kazuo Azumi, and Shuichiro Shirakawa: “Development and standardization of OSA sleep inventory (MA version) for middle-aged and elderly individuals”, Brain Science and Mental Disorders, vol. 10, p 401-409, 1999, the subjects were instructed to evaluate with respect to items listed in the OSA sleep inventory, and the results were analyzed. The assessment was performed once in the morning of the day of assessment (before load application). The OSA sleep inventory (MA version) consists of 16 items in terms of five factors, namely, First factor: sleepiness on rising, Second factor: initiation and maintenance of sleep, Third factor: frequent dreaming, Fourth factor: refreshing, and Fifth factor: sleep length, and the subjects were instructed to answer each question from four choices, and the results were converted to scores with a conversion table for analysis.

For series [3] the test system is unchanged. The experiment in a line: Continuous calculation task (Uchida-Kraepelin test), task performance with a mental load. Conditions: after 8-week ingestion, vs control group (FIG. 18). Type of series: in vivo. On the procedure: A mental load was applied to each subject by a continuous calculation task with the Uchida-Kraepelin test (Nisseiken Inc., Japan) consisting of two sessions of a 15-min serial addition task (total 30 min), with a 5-min rest period between the first and second sessions. Specifically, the subjects were instructed to sequentially add two adjoining single-digit numbers (combination of 3, 4, 5, 6, 7, 8, and 9), record only the last digit (one's place) of the sum, spend only 1 min on each line, and then quickly move on to the next line of numbers for calculation. This task was continued for 15 min in each session. After the completion of the task, the number of calculations and the number of wrong answers were counted to calculate the percentage of correct answers, and the results for the first session were subtracted from those for the second session to determine change in task performance in the second session, which was used as the task performance with a mental load.

The test system is the same in series [4]. The experiment in a line: Cycling task on a bicycle ergometer, task performance with a physical load. The series is classed as in vivo. The note with it: between the groups (FIG. 19). The protocol:
A physical load was applied by a cycling task on a bicycle ergometer. Specifically, the subjects were instructed to pedal for 30 min with a rotation rate of the pedal adjusted to maintain the heart rate at 120 to 130 HR for men and 110 to 120 HR for women. The magnitude of the load was set at a constant level of 80 W for men and 70 W for women. The distance cycled (km) in 30 min was measured, which was used as the task performance with a physical load.

Series [5] can be described thus: Study 2: temporal change of human blood (plasma) astaxanthin level on long-term ingestion. Type of series: in vivo. The protocol: This study is a study in humans to confirm how the blood (plasma) astaxanthin level changes through long-term ingestion of astaxanthin. While the blood (serum) astaxanthin level was measured at the completion of ingestion (after 12-week ingestion) in Study 1, Study 2 is, specifically, a study in humans to confirm how the blood (plasma) astaxanthin level behaves in the case that the period of ingestion is shorter than 12 weeks.
Ten healthy Japanese men and women at age of 20 years or older and younger than 50 years
Each subject ingested two capsules per day, each capsule containing 60 mg (6 mg in terms of the free form of astaxanthin) of Haematococcus algae extract and 270 mg of edible fat and oil, with water 30 minutes after breakfast (12 mg/day in terms of the free form of astaxanthin) for 42 days.
Blood sampling was performed one day, six days, 13 days, 20 days, 27 days, 34 days, and 42 days after the initiation of ingestion of the capsules to obtain the plasma. The plasma astaxanthin level was measured by using the method in [5-4] in Study 1 with HPLC.

Series [6] deals with salivary secretory immunoglobulin A (sIgA). The experiment in a line: Measurement of salivary secretory immunoglobulin A (EIA). Type of series: in vivo, human. An excerpt: Salivary cortisol, which was examined as a biochemical index for a mental load, is used as a stress marker because of simplicity of measurement due to the high correlation with blood cortisol, and known to be increased by an acute mental stress, for example, caused at making a speech in front of others or doing mental calculation or by continuous, high-intensity exercise. Because the salivary cortisol concentration is known to show circadian variation, being high in the morning and then declining as the night approaches, mental load application (calculation load; Uchida-Kraepelin test) was performed in the morning in this study. Salivary secretory immunoglobulin A (sIgA) is an antibody produced by B cells that inhibits the proliferation of pathogens on the mucosa of the oral cavity, airway, intestines, and other organs. It is known that reduction of sIgA in saliva is associated with the development of upper respiratory tract infection and that salivary sIgA concentration decreases under chronic stress and increases in a relaxed state.
Saliva samples were collected from the subjects in the morning of the day of assessment (before load application) in the same manner as in (1) of [5-2]. The sIgA concentration in each saliva sample was measured with an enzyme immunoassay (EIA) kit (EIA s-IgA Test Kit, Medical & Biological Laboratories Co., Ltd.).

The mark [7] stands for this setting: throughout the study period, 12 mg/day.
[8] abbreviates: astaxanthin group vs pre-ingestion, no significant difference (FIG. 2).
The mark [9] stands for this setting: 2 capsules/day (12 mg/day free form) for 42 days (FIG. 20).

`CC1=C(/C=C/C(C)=C/C=C/C(C)=C/C=C/C=C(C)/C=C/C=C(C)/C=C/C2=C(C)C(=O)C(O)CC2(C)C)C(C)(C)CC(O)C1=O` (stereo not drawn) [astaxanthin, 3,3′-dihydroxy-β,β-carotene-4,4′-dione]: the adverse event result in series [1] (this study) was “no adverse event was found”. For the same molecule, in series [1] (setting [7]), the adverse subjective symptoms entry is given as “none of the subjects complained” and the “medical examination by a physician” value is “no remarkable abnormalities”. Moreover, in series [2] (setting [8]), the “OSA First factor (sleepiness on rising)” value is “large increase”; the “OSA Fourth factor (refreshing)” value was “large increase”; the “OSA Second factor (initiation and maintenance of sleep)” value is listed as “large increase”. For the same molecule, the “OSA Fifth factor (sleep length)” value in series [2] (astaxanthin group, 12 mg/day, vs pre-ingestion (FIG. 2)) is on record as “marginally significant increase”. Also, the “degree of improvement in Fifth factor (sleep length) compared with chamomile tea” value in series [2] (vs literature: 200 mL chamomile tea 1 hour before bedtime over three days) is “larger”. In series [3], the “change in the number of wrong answers in the second session, continuous calculation task” value is recorded as “significant improvement” and the “percentage of correct answers in the second session, continuous calculation task” value is recorded as “significant improvement”. In series [4] (after 4-week ingestion), the cycling distance entry was “no significant difference”. The cycling distance result in series [4] (after 8-week ingestion) is “no significant difference”. Also, in series [5] (setting [9]), the “human blood (plasma) astaxanthin level at plateau” value was “approximately 200 ng/mL” and the “time after initiation of ingestion at which plasma astaxanthin level plateaued” value was “about six”. Moreover, in series [5] (as long as ingestion of astaxanthin-containing food was continued), the “human blood (plasma) astaxanthin level during continued ingestion” value is reported as “not lowered”. The “salivary sIgA concentration” value in series [6] (after 8-week ingestion) came out at 41.9 ± 5.5 µg/mL. Also, the “salivary sIgA concentration” value in series [6] (at pre-ingestion (before load application), astaxanthin group) was 46.5 ± 8.2 µg/mL. Moreover, the “change in salivary sIgA concentration” value in series [6] (until week 8 of ingestion vs pre-ingestion (FIG. 8)) is recorded as “no significant change”.
